As a reminder, the Ki is a dissociation constant, usually derived from enzyme kinetics or from competition with a known ligand.

Some results are limits rather than exact numbers.

For the first experiment, the target named is T1, purified catalytic domain of recombinant human TACE (rhTACEc) (Homo sapiens, UniProt P78536, N452Q/S266A).
T1 construct: rhTACEc, Residue 215 to 477 with two mutation (S266A and N452Q) and a 6xHis tail; 6xHis (C); made in house; host or cells: baculovirus/Hi5 insect cells
T1 sequence (P78536 215-477 S266A/N452Q): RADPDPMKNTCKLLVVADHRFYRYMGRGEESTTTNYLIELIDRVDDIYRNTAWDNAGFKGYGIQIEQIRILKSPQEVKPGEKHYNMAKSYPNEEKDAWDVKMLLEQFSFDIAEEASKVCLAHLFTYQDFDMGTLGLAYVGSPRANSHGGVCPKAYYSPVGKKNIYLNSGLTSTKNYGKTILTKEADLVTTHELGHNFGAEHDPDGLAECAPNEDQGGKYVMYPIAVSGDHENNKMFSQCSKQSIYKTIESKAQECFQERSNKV
As to the kind of experiment: TACE kinetic assay, cleavage of internally quenched fluorescent peptide substrate SPDL-3. The format is biochemical. The note with it: Specific TACE inhibitory activity of representative compounds; read-out: Ki. As to the method: TACE activity is determined by a kinetic assay measuring the rate of increase in fluorescent intensity generated by TACE catalyzed cleavage of an internally quenched peptide substrate (SPDL-3). […] It is purified from the baculovirus/Hi5 cells expression system using affinity chromatography. […] MCA is (7-Methoxycoumarin-4-yl)acetyl. Dpa is N-3-(2,4-Dinitrophenyl)-L-2,3-diaminopropionyl.
A 50 μl assay mixture contains 20 mM HEPES, pH 7.3, 5 mM CaCl2, 100 µM ZnCl2, 2% DMSO, 0.04% Methylcellulose, 30 μM SPDL-3, 70 pM rhTACEc and a test compound. RhTACEc is pre-incubated with the testing compound for 90 min. at 25° C. Reaction is started by addition of the substrate. […] Rate of enzymatic reaction is shown as Units per second. Effect of a test compound is shown as % of TACE activity in the absence of the compound.
As to `COc1ccc2c(c1)C(=O)N(C[C@@]1(c3cc4nc(S(C)(=O)=O)ccc4o3)NC(=O)NC1=O)C2` [Compound 50], the Ki was 1.04 nM.

For `COc1ccc2c(c1)C(=O)N(C[C@@]1(c3ccc(-c4cc(C(=O)NC5CC5)cc(C)n4)cc3)NC(=O)NC1=O)C2` [Compound 64], the Ki amounted to 0.15 nM.

As for `COc1ccc2c(c1)C(=O)N(C[C@@]1(c3ccc(-c4cnc(N)c(C(N)=O)c4)cc3)NC(=O)NC1=O)C2` [Compound 68], the Ki amounted to 0.23 nM.

Staying with this experiment, now noted: TACE inhibition, Table 1; read-out: Ki Rating.
As for `COC(=O)c1ccc(C2(CN3Cc4ccc(OC)cc4C3=O)NC(=O)NC2=O)cc1` (centres unmarked) [Compound 30], the inhibition constant (Ki) was < 10 nM.

In the case of `COc1ccc2c(c1)C(=O)N(CC1(CC(=O)NCC3CCCO3)NC(=O)NC1=O)C2` (centres unmarked) [Compound 12], the Ki was in the range of 10 to 100 nM.

As for `COc1ccc2c(c1)C(=O)N(C[C@@]1(c3cc4nc(S(C)(=O)=O)ccc4o3)NC(=O)NC1=O)C2` [Compound 50], the Ki was < 10 nM.

Consider `COc1ccc2c(c1)C(=O)N(C[C@@]1(c3ccc(-c4cc(C(=O)NC5CC5)ccn4)cc3)NC(=O)NC1=O)C2` [Compound 60], for which the Ki is < 10 nM.

In the case of `COc1ccc2c(c1)C(=O)N(C[C@@]1(c3ccc(-c4ncccc4C(=O)NC4CC4)cc3)NC(=O)NC1=O)C2` [Compound 62], the Ki is < 10 nM.

As to `CC#CCOc1ccc([C@]2(CN3Cc4ccc(OC)cc4C3=O)NC(=O)NC2=O)cc1` [Compound 91], the Ki was < 10 nM.

Turning to `COc1ccc2c(c1)C(=O)N(CC1(CC(=O)NC(C)C)NC(=O)NC1=O)C2` (centres unmarked) [Compound 7], the Ki was 10 to 100 nM.

Consider `COc1ccc2c(c1)C(=O)N(C[C@@]1(c3cc4nc(SC)ccc4o3)NC(=O)NC1=O)C2` [Compound 49], for which the Ki is < 10 nM.

Take `COc1ccc2c(c1)C(=O)N(C[C@@]1(CCc3ccc(F)c(C(N)=O)c3)NC(=O)NC1=O)C2` [Compound 47]: the Ki fell in the range of 10 to 100 nM.

In the case of `COc1ccc2c(c1)C(=O)N(C[C@@]1(c3ccc(Oc4cccc(C(=O)N(C)C)c4)cc3)NC(=O)NC1=O)C2` [Compound 88], the Ki is < 10 nM.

Turning to `COc1ccc2c(c1)C(=O)N(CC1(CC(=O)NCC(C)C)NC(=O)NC1=O)C2` (centres unmarked) [Compound 11], the Ki was in the range of 10 to 100 nM.

As for `COc1ccc2c(c1)C(=O)N(CC1(CC(=O)N3CCOCC3)NC(=O)NC1=O)C2` (centres unmarked) [Compound 3], the inhibition constant Ki was in the range of 10 to 100 nM.

On to `COC(=O)c1ccnc(-c2ccc(C3(CN4Cc5ccc(OC)cc5C4=O)NC(=O)NC3=O)cc2)c1` (centres unmarked) [Compound 55], for which the inhibition constant Ki is < 10 nM.

As for `CCOC(=O)c1n[nH]c2ccc(-c3ccc([C@]4(CN5Cc6ccc(OC)cc6C5=O)NC(=O)NC4=O)cc3)cc12` [Compound 77], the Ki was < 10 nM.

Consider `COc1ccc2c(c1)C(=O)N(C[C@@]1(c3ccc(-c4cc(C(=O)NC5CC5)cc(C)n4)cc3)NC(=O)NC1=O)C2` [Compound 64], for which the Ki was < 10 nM.

With `COC(=O)c1ncccc1C(=O)C[C@]1(CN2Cc3ccc(OC)cc3C2=O)NC(=O)NC1=O` [Compound 45], the Ki fell in the range of 10 to 100 nM.

For `COc1ccc2c(c1)C(=O)N(CC1(CC(=O)N3CCC(C#N)(c4ccccc4)CC3)NC(=O)NC1=O)C2` (centres unmarked) [Compound 16], the Ki is 10 to 100 nM.

Consider `COc1ccc2c(c1)C(=O)N(CC1(CC(=O)O)NC(=O)NC1=O)C2` (centres unmarked) [Compound 2], for which the Ki fell in the range of 100 to 1000 nM.

Consider `COc1ccc2c(c1)C(=O)N(C[C@@]1(c3ccc(C(N)=O)cc3)NC(=O)NC1=O)C2` [Compound 103], for which the Ki is < 10 nM.

Consider `COc1ccc2c(c1)C(=O)N(C[C@@]1(c3ccc(C(=O)N4CCOCC4)cc3)NC(=O)NC1=O)C2` [Compound 99], for which the inhibition constant Ki was < 10 nM.

With `COc1ccc2c(c1)C(=O)N(C[C@@]1(c3ccc(-c4cc(C#N)ccn4)cc3)NC(=O)NC1=O)C2` [Compound 73], the Ki is < 10 nM.

Take `COc1ccc2c(c1)C(=O)N(C[C@@]1(c3ccc(-c4cnc(N)c(C(N)=O)c4)cc3)NC(=O)NC1=O)C2` [Compound 68]: the Ki is < 10 nM.

Regarding `O=C(O)Cc1ccc2c(c1)CN(CC1(c3ccc(F)cc3)NC(=O)NC1=O)C2=O` (centres unmarked) [Compound 36], the Ki was in the range of 100 to 1000 nM.

For the compound `COc1ccc2c(c1)C(=O)N(CC1(CC(=O)N3Cc4ccccc4C3)NC(=O)NC1=O)C2` (centres unmarked) [Compound 17], the Ki fell in the range of 10 to 100 nM.

In the case of `COc1ccc2c(c1)C(=O)N(C[C@@]1(c3ccc(-c4cc(C(N)=O)ccn4)cc3)NC(=O)NC1=O)C2` [Compound 59], the Ki is < 10 nM.

On to `COc1ccc2c(c1)C(=O)N(C[C@@]1(c3ccc(-c4cncc(C(N)=O)c4)cc3)NC(=O)NC1=O)C2` [Compound 58], for which the Ki is < 10 nM.

For the origin of these results see patent US8178553B2, “Compounds for the treatment of inflammatory disorders” (Schering Corporation, priority 2006, dated 2012).
